US8623832B2, “Peptide compositions that bind TLR-4” (The Board of Regents of the University of Oklahoma, priority 2011, dated 2014)
Where no end group is shown, it is not given here.

How the values were obtained:
[1] = test system: dendritic (JAWS II) and intestinal epithelial cells (SW480); test: Cell viability during the 5 hour TLR4 expression experiment; assay type: cell-based; details: within the 5 hours of the experiment
Experimental: SPA4 peptide (SEQ ID NO:3) inhibits the LPS-induced TLR4 expression in dendritic cells and SW480 intestinal (colonic) epithelial cells. […] Both of these cells constitutively express the TLR4 gene; the protein expression is low in dendritic cells under basal conditions. […] First, it was determined if the SPA4 peptide inhibits LPS-induced expression of TLR4 in these cells. […] After a total of 5 hours, TLR4 expression was studied by confocal microscopy.

SW480 cells = test: LPS-stimulated migration of SW480 cells; assay type: cell-based, human; details: LPS 1.0 μg/ml; SPA4 1, 10 and 50 μM; from 24 hours till 72 hours
Experimental: Cell migration: SW480 cells were plated in 30 mm tissue-culture-treated dishes at a density of 1.0×10^6 cells per plate. At 80-90% confluence, a “reference line” was drawn at the bottom of the plate. The cells were scratched off from one side of the reference line using a rubber policeman. A picture was taken at 0 t that helped in marking the “start line”. Cells were then washed with complete medium and incubated with LPS (1.0 μg/ml) and/or SPA4 peptide (1, 10 and 50 μM). Photomicrographs of cells migrated across the “start line” were taken in different fields after each treatment at 24, 48, and 72 hours (±2 hours) following traceable inscriptions made under the plate at three different points, with a Canon digital camera. On 24, 48 and 72 hour images, a second line was drawn along the edge of cells to represent the migration of cells. Cell migration was calculated by measuring the distance cells migrated from the “start line”. Only the continuous migration of cells was considered for measurement. The islets of cells were disregarded. The cell migration was calculated using the following formula: (distance between “start line” at 0 h—“reference line”)-(distance between “72 hours line”—“reference line”).

TLR4 = TLR4 expression in SW480 cells by immunocytochemistry / confocal microscopy; assay type: cell-based, human; details: LPS 4 hours then SPA4 1 hour, more pronounced with 100 μM
Experimental: Expression of TLR4: Next, the effect of SPA4 peptide on the expression of TLR4 in SW480 cells was investigated by immunocytochemistry and laser confocal microscopy. Briefly, about 2.5×10^4 cells were seeded in an 8-well chamber slide (Thermo Fisher Scientific, Rochester, N.Y.) in complete medium. The cells were treated with E. coli O111:B4-derived, highly-purified, low-protein LPS (100 ng/ml or 1.0 μg/ml; Calbiochem, CA) for 4 hours following 1 hour incubation with SPA4 peptide (1, 10 and 100 μM). The cells were fixed in 3.5% paraformaldehyde in Dulbecco's PBS (DPBS) and permeabilized with 0.05% saponin solution (Inaba et al. 1998). The wells were washed with DPBS supplemented with 1% FBS and 0.05% saponin, and stained with TLR4-specific antibody (1:50 dilution, Abcam, Mass.) and 10 μg/ml Alexa-fluor 488-labeled secondary anti-rabbit IgG antibody (Invitrogen-Molecular Probes, CA). After washing, the cells were stained with 100 nM rhodamin-phallodin (Cytoskeleton Inc, CO) and 1 μg/ml Hoechst 33342 dyes (Invitrogen-Molecular Probes, CA). Confocal microscopic images were acquired at the Imaging core facility of the Oklahoma Medical Research Foundation, Oklahoma City, using the Zeiss LSM-510 META laser scanning confocal microscope. Images were acquired with lens objective of 63× with the x/y stack sizes being 146.2 μm using band pass filter specifications at 435-485, 560-615 and 505-530.

[2] = Solubility of purified baboon lung SP-A; assay type: physicochemical

Substance	viability of cells [1]	LPS-induced migration of SW480 cells (SW480 cells)	LPS-stimulated TLR4 expression (TLR4)	solubility [2] [%]
GDFRYSDGTPVNYTNWYRGE [SPA4, GDFRYSDGT PVNYTNWYRGE]	does not affect the viability of cells	inhibited	reduced the LPS-stimulated TLR4 expression to basal level	–
SP-A: native surfactant protein-A purified from bronchioalveolar lavage fluid of a normal healthy adult baboon (MWLCPLALTLTLMAASGAACEVKDVCVGSPGIPGTPGSHGLPGRDGRDGVKGDPGPP; listed as Papio cynocephalus)	–	–	–	51
